Data from patent US20100216703A1, “Inhibitors of PDE4 and Methods of Use” (THE REGENTS OF THE UNIVERSITY OF CALIFORNIA, priority 2006, published 2010).
“Also recorded” adds a separate entry of the source.

Assays:
spinal cord injury = details: Nikulina et al., 2004, Pearse et al.; cited from earlier work
[1] = tested on: LPS-induced lung fibrosis; experiment: LPS-induced lung fibrosis / acute lung injury; type: in vivo, mouse
Description: Animals, sciatic nerve crush, and induction of lung fibrosis p75NTR−/− mice (Lee et al., 1992) and tPA−/− mice (Carmeliet et al., 1994) were in C57B1/6 background and purchased from The Jackson Laboratory. Double p75NTR−/−tPA−/− mice were generated by crossing p75NTR−/− mice with tPA−/− mice. C57B1/6J mice were used as controls. Sciatic nerve crush was performed as described previously (Akassoglou et al., 2000). Lung fibrosis was induced as described previously (Chen et al., 2004). For the rolipram treatments, mice were administered 5 mg/kg rolipram (Calbiochem) before the LPS injection as described previously (Miotla et al., 1998). Mice were killed 4.5 h after LPS or saline administration. For rolipram treatment after sciatic nerve injury, mice were injected with rolipram (1 mg/kg) once daily for 8 d until tissue was harvested and processed for immunostaining. Immunohistochemistry was performed as described in Akassoglou et al. (2002). Primary antibodies were sheep anti-human fibrin(ogen) (1:200; US Biologicals), rabbit anti-human tPA ( 1/300; Molecular Innovations), rabbit anti-p75NTR clone 9651, (1:1,000), goat anti-p75NTR ( 1/200; Santa Cruz Biotechnology, Inc.), rabbit anti-mouse PAI-1 (1:500; a gift from David Loskutoff, Scripps Research Institute, La Jolla, Calif.), and mouse anti-S100 (1:200; Neomarkers). For immunofluorescence, secondary antibodies were anti-rabbit FITC and anti-goat Cy3 (1:200; Jackson Immunochemicals). Images were acquired with an Axioplan II epifluorescence microscope (Carl Zeiss Microlmaging, Inc.) using dry Plan-Neofluar lenses using 10×0.3 NA, 20×0.5 NA, or 40×0.75 NA objectives equipped with Axiocam HRc digital camera and the Axiovision image analysis system. Immunoblot was performed as described previously (Akassoglou et al., 2002). Antibodies used were rabbit anti-p75NTR clones 9992 and 9651 (1:5,000), mouse anti-fibrin (1:500; Accurate Chemical & Scientific Corp.), rabbit anti-myosin (1:1,000; Sigma-Aldrich), rabbit anti-GAPDH (1:5,000; Abcam) and rabbit anti-PAI-1 (1:5,000; a gift of David Loskutoff). Quantification was performed on the Scion NIH Imaging Software. Fibrin precipitation and quantification from lung tissues was performed exactly as described previously (Ling et al., 2004). RT-PCR was performed as described previously (Akassoglou et al., 2002). Primers for tPA, uPA, and PAI-1 genes were used as described previously (Yamamoto and Loskutoff, 1996). Real-time PCR was performed using the Opticon DNA Engine 2 (MJ Research) and the Quantitect SYBR Green PCR kit (QIAGEN). Results were analyzed with Opticon 2 software using the comparative Ct method as described previously (Livak and Schmittgen, 2001). Data were expressed as ΔΔCt for the tPA gene normalized against GAPDH.

CGNs = experiment: Intracellular cAMP in cerebellar granule neurons; type: cell-based, mouse
Excerpt: Murine SCs were isolated as described previously (Syroid et al., 2000). NIH3T3 or HEK293 cells were cotransfected either with p75NTR FL, ICD or deletion constructs, and PDE4A5 cDNAs using Lipofectamine 2000 (Invitrogen) as described in the Results section. CGNs were isolated from P10 animals (Yamashita and Tohyama, 2003). CGNs were lysed immediately for co-IP, without plating. siRNA directed against p75NTR (Dharmacon; SMART Pool reagent, Cat. M-080041-00; Cat. M-009340) was transfected into SCs and NIH3T3p75NTR cells using Dharmafect (Dharmacon).
(§1) […] fibroblasts or 500,000 SCs were lysed in 0.1 N HCl solution and cAMP was measured using a competitive binding cAMP ELISA (Assay Designs). Cells were treated with 100 ng/ml PTX for 16 h. […] Cells were treated with forskolin in the presence of the inhibitors for 1 h. […] For the qualitative and quantitative PKA assay (Promega), cells were treated with 10 μM forskolin for 30 min, lysed in 1% NP-40 buffer with 150 mM NaCl, 50 mM Tris, and 1 mM EGTA, and protein concentration was determined using the Bradford Assay (Bio-Rad Laboratories). 1 μg was loaded into the PKA assay reaction mix according to the manufacturer's protocol (Promega).

NIH3T3p75NTR cells [2] = experiment: Quantification of tPA activity; type: cell-based; details: 10 μM forskolin 16 h; 200 nM KT5720; IBMX; rolipram
Description: Quantification of tPA and uPA activity in SC and fibroblast in lysates and supernatants was performed according to the directions of the activity assay kits from American Diagnostica and Chemicon, respectively. To elevate cAMP cells were treated either with 2 mM db-cAMP (Sigma-Aldrich) or with 10 μM forskolin (Sigma-Aldrich) for 16 h. To block PKA activity, cells were treated with 200 nM KT5720 (Calbiochem).

NIH3T3p75NTR cells [3] = experiment: Competitive binding cAMP ELISA; type: cell-based; details: 16 h; PTX 100 ng/ml, IBMX 500 μM, PDE1 inh. 18.7 μM, EHNA 80 μM, trequinsin 100 nM, rolipram 10 μM, PDE5 inh. 23 μM
Description: as §1

[4] = tested on: sciatic nerve crush injury; experiment: Sciatic nerve crush injury; type: in vivo, mouse; details: wt nerves 8 days after crush; rolipram 1 mg/kg once daily for 8 d
Description: Animals, sciatic nerve crush, and induction of lung fibrosis p75NTR−/− mice (Lee et al., 1992) and tPA−/− mice (Carmeliet et al., 1994) were in C57B1/6 background and purchased from The Jackson Laboratory. Double p75NTR−/−tPA−/− mice were generated by crossing p75NTR−/− mice with tPA−/− mice. C57B1/6J mice were used as controls. Sciatic nerve crush was performed as described previously (Akassoglou et al., 2000). Lung fibrosis was induced as described previously (Chen et al., 2004). For the rolipram treatments, mice were administered 5 mg/kg rolipram (Calbiochem) before the LPS injection as described previously (Miotla et al., 1998). Mice were killed 4.5 h after LPS or saline administration. For rolipram treatment after sciatic nerve injury, mice were injected with rolipram (1 mg/kg) once daily for 8 d until tissue was harvested and processed for immunostaining. Immunohistochemistry was performed as described in Akassoglou et al. (2002). Primary antibodies were sheep anti-human fibrin(ogen) (1:200; US Biologicals), rabbit anti-human tPA ( 1/300; Molecular Innovations), rabbit anti-p75NTR clone 9651, (1:1,000), goat anti-p75NTR ( 1/200; Santa Cruz Biotechnology, Inc.), rabbit anti-mouse PAI-1 (1:500; a gift from David Loskutoff, Scripps Research Institute, La Jolla, Calif.), and mouse anti-S100 (1:200; Neomarkers). […]

PDE4 = details: cited from earlier work
Primary CGNs = experiment: Myelin inhibition of neurite outgrowth; type: cell-based, mouse; details: 24 hrs, myelin 1 μg/well, poly-D-lysine

| Molecule | axonal regeneration and functional recovery (spinal cord injury) | fibrin deposition in the lung ([1]; 5 mg/kg rolipram before LPS, vs LPS alone) | decrease in fibrin, rolipram vs. control treated wt lungs ([1]; 5 mg/kg rolipram before LPS, killed 4.5 h after LPS) [%] | PAI-1 in the lung after LPS (quantitative PCR of transcripts) ([1]; LPS + rolipram) | PAI-1 transcripts in the lung, rolipram treatment alone ([1]; no LPS) | intracellular cAMP in p75NTR−/− CGNs (CGNs; p75NTR−/− cells) | intracellular cAMP in wild-type CGNs (CGNs; wild-type cells) | tPA activity in NIH3T3p75NTR cells (NIH3T3p75NTR cells [2]) | intracellular cAMP levels in NIH3T3p75NTR cells (NIH3T3p75NTR cells [3]) | fibrin deposition in the sciatic nerve [4] | PDE4 isoform selectivity (PDE4; background statement) | IC50 (PDE4) [nM] | myelin inhibition of neurite outgrowth (Primary CGNs) |
| --- | --- | --- | --- | --- | --- | --- | --- | --- | --- | --- | --- | --- | --- |
| COc1ccc(C2CNC(=O)C2)cc1OC1CCCC1 (stereo not shown) [rolipram] | […] | decreased in the lung; also recorded: reduces fibrin deposition; also recorded: decreases fibrin deposition | 34 | reduction of LPS-induced PAI-1 upregulation; also recorded: decreases PAI-1 | no effect | no significant increase | four-fold increase in intracellular cAMP | increase of tPA levels | increase intracellular levels of cAMP; also recorded: increase levels of cAMP in NIH3T3p75NTR cells to the levels of NIH3T3 cells; also recorded: significantly increases cAMP levels | decreased levels of fibrin deposition; also recorded: statistically significant reduction of fibrin deposition; also recorded: reduces fibrin deposition; also recorded: decreases fibrin deposition | […] | […] |  |
| YGRKKRRQRRRSPLDSQASPGLVLHAGATTSQRRES (listed as Homo sapiens) [peptide 25] |  |  |  |  |  |  |  |  |  |  |  |  | did not overcome myelin inhibition of neurite outgrowth |
